In US20250339569A1, “CARBONIC ANHYDRASE IX LIGANDS” (priority 2021, published 2025):
Where two headings read alike, the source gives them in different places. Starred links: 1 amine or outer side, 2 acyl side, 3 side chain; linkers in the order of their positions; H or OH if unused. Positions of bridges follow the written chain, without caps; N, C: chain ends. Non-standard residues stand in square brackets, D forms with d. Residues, ends and D or L forms follow the SMILES beside them. *: point of attachment. X16 = NC(=O)[C@H](CCCCNC(=O)CN1CCN(CC(=O)O)CCN(CC(=O)O)CCN(CC(=O)O)CC1)NC(=O)CCC(=O)NCCCOCCOCCOCCCN*; NH(CH2)3NH(O2Oc(DOTA)) = O=C(O)CN1CCN(CC(=O)O)CCN(CC(=O)NCCOCCOCC(=O)NCCCN*)CCN(CC(=O)O)CC1; X3 = O=C(O)CN1CCN(CC(=O)O)CCN(CC(=O)NCCCOCCOCCOCCCN*)CCN(CC(=O)O)CC1; NH(1-deoxy-D-glucityl) = OC[C@@H](O)[C@@H](O)[C@H](O)[C@@H](O)CN*; DOTA = O=C(O)CN1CCN(CC(=O)O)CCN(CC(=O)*)CCN(CC(=O)O)CC1; Phe(3,4-Cl2) = N[C@@H](Cc1ccc(Cl)c(Cl)c1)C(=O)O; mXylylene = c1cc(C[*:1])cc(C[*:2])c1; X2 = O=C(CN1CCC(N[*:1])CC1)[*:2]; Suc = O=C(CCC(=O)[*:2])[*:1]; hSer = N[C@@H](CCO)C(=O)O; Nle = CCCC[C@H](N)C(=O)O; Dap = NC[C@H](N)C(=O)O; Bn = c1ccc(C*)cc1

Assays:
[1] = biological target: T1, CAIX-expressing human HT-29 colorectal cancer cells (Homo sapiens, UniProt Q16790); test: FACS binding assay (IC50 determination, competition with tracer 3BP-2776 or 3BP-4149); conditions: 4° C., 1 hour, read-out: pIC50 category (activity) (converted)
T1 construct: CAIX-expressing human HT-29 colorectal cancer cells; host or cells: HT-29 human colorectal cancer cells
How it was run: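 HT-29 cells in FACS buffer (PBS, 1% FCS) at 500.000 cells/ml were exposed to compounds competing with a labelled tracer, with biotinylated compounds detected by 1 μg/mL APC-streptavidin for 30 min on ice. APC/Cy5 median fluorescence was read by flow cytometry and IC50 derived by 4PL fit.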

[2] = biological target: T2, human carbonic anhydrase IX (hCAIX-Fc) (Homo sapiens, UniProt Q16790); test: Surface plasmon resonance assay with hCAIX-Fc; format: binding; conditions: 25° C.; for t1/2 category (activity): SPR dissociation half-life, hCAIX-Fc; for Kd: SPR, hCAIX-Fc captured, read-out: pKD category (activity) (converted)
T2 construct: purchased SinoBliological (Sino Biological) 10107-H02H

[3] = biological target: T3, NEP (Homo sapiens, UniProt P08473); test: Proteolytic stability assay against NEP; format: in vitro ADME; conditions: human, recombinant soluble human NEP, 100 ng/mL NEP, 10 μM compound, 37°C, read-out: % intact compound remaining after 24 h incubation
T3 construct: Recombinant soluble human NEP; purchased BioTechne, Wiesbaden, Germany
T3 sequence (P08473 52-750 limits assumed): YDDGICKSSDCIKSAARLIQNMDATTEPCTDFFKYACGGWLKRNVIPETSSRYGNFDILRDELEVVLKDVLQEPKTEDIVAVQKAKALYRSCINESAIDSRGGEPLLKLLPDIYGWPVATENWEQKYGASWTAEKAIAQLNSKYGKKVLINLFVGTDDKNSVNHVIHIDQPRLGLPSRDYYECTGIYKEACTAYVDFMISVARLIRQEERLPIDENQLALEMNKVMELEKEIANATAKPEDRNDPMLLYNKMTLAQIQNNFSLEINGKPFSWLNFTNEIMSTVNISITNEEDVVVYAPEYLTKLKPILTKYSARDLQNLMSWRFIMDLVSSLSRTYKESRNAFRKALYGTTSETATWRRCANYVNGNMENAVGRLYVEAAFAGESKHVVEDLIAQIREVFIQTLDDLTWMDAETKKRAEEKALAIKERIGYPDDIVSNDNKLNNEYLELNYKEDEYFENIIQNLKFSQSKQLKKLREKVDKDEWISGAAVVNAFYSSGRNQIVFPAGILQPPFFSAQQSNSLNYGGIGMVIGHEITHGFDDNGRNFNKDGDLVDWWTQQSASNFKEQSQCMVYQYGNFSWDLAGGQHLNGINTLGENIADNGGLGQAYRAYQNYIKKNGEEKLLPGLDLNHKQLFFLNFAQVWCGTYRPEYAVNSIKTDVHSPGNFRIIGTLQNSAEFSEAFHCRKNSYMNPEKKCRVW
Method: To assess the stability of compounds against NEP, the compounds were subjected to an in vitro assay based on the protocol described by Edelson et al. (Edelson et al., Pulmonary pharmacology & therapeutics, 2013, 26, 229-238).
Recombinant soluble human NEP (BioTechne, Wiesbaden, Germany) at a concentration of 100 ng/mL was mixed with the compound (10 μM) and a stable internal standard (10 μM) and incubated at 37° C. After several time points, samples were taken and analyzed with LC-MS.
The activity of NEP was examined using a commercially available chromogenic substrate of NEP.

[4] = Plasma stability assay, mouse plasma; conditions: for % intact compound remaining (incubation time): mouse plasma, 37°C, 24 h
[5] = FACS competition on HT-29 cells, Tracer ID 3BP-2776 (10 nM, biotin-labeled)
[6] = FACS binding assay, HT-29 cells, competition with tracer 3BP-2776 (10 nM, biotin-labeled)

Compound	IC50 [1, 5] [nM]	t1/2 category (activity) [2]	Kd [2] [nM]	remaining at 24 h, 10 μM [3] [%]	% intact compound remaining (incubation time) [4] [%]	IC50 ([1]; FACS binding assay, HT-29 cells, competition with tracer 3BP-4149 (3 nM, Cy5-labeled)) [nM]	remaining at 4 h, […] ([4]; mouse, plasma (K2EDTA)) [%]	IC50 [1, 6] [nM]
CC(=O)N[C@H](C(=O)N[C@@H](Cc1ccc(O)cc1)C(=O)N[C@H]1CSCc2cccc(c2)CSC[C@@H](C(N)=O)NC(=O)[C@H](C)NC(=O)[C@H](Cc2c[nH]c3ccccc23)NC(=O)[C@H]([C@@H](C)O)NC(=O)[C@H](CC(C)C)NC(=O)[C@H](Cc2c[nH]c3ccccc23)NC(=O)[C@H](CC(=O)O)NC(=O)[C@H]2CCCN2C(=O)[C@H](CCC(=O)O)NC1=O)C(C)C [3BP-3282] (Ac-VYCE[dP]DWLTWAC-NH2; linker 3-12 via mXylylene)	< 10	A (t1/2>15.0 minutes)	< 10	> 95	–	–	–	–
CC(=O)N[C@H](C(=O)N[C@@H](CCCNC(=N)N)C(=O)N[C@H]1CSCc2cccc(c2)CSC[C@@H](C(N)=O)NC(=O)[C@H](CCC(=O)NCCCNC(=O)COCCOCCNC(=O)CN2CCN(CC(=O)O)CCN(CC(=O)O)CCN(CC(=O)O)CC2)NC(=O)[C@H](Cc2c[nH]c3ccccc23)NC(=O)[C@H]([C@@H](C)O)NC(=O)[C@H](CC(C)C)NC(=O)[C@H](Cc2c[nH]c3ccccc23)NC(=O)[C@H](CC(=O)O)NC(=O)[C@H]2CCCN2C(=O)[C@H](CCC(=O)O)NC1=O)C(C)C [3BP-3734] (Ac-VRCE[dP]DWLTWE(NH(CH2)3NH(O2Oc(DOTA)))C-NH2; linker 3-12 via mXylylene)	< 10	B (t1/2 between 5.1 and 15.0 minutes)	< 10	–	79	–	–	–
CC(C)C[C@@H]1NC(=O)[C@H](Cc2c[nH]c3ccccc23)NC(=O)[C@H](CC(=O)O)NC(=O)[C@H]2CCCN2C(=O)[C@H](CCC(=O)O)NC(=O)[C@@H]2CSCc3cccc(c3)CSC[C@@H](C(N)=O)NC(=O)[C@H](CNC(=O)C[C@H](NC(=O)[C@@H](NC(=O)CN3CCN(CC(=O)O)CCN(CC(=O)O)CCN(CC(=O)O)CC3)C(C)C)C(=O)N2)NC(=O)[C@H](Cc2c[nH]c3ccccc23)NC(=O)[C@H]([C@@H](C)O)NC1=O [3BP-4264] ({DOTA}-VDCE[dP]DWLTW[Dap]C-NH2; lactam 2-11; linker 3-12 via mXylylene)	–	A (t1/2>15.0 minutes)	< 10	–	>95	< 10	–	–
CC(=O)N[C@H](C(=O)N[C@@H](Cc1ccc(O)cc1)C(=O)N[C@H]1CSCc2cccc(c2)CSC[C@@H](C(=O)NCCCOCCOCCOCCCNC(=O)CCC(=O)N[C@@H](CCCCNC(=O)CN2CCN(CC(=O)O)CCN(CC(=O)O)CCN(CC(=O)O)CC2)C(N)=O)NC(=O)[C@H](CCC(N)=O)NC(=O)[C@H](Cc2c[nH]c3ccccc23)NC(=O)[C@H]([C@@H](C)O)NC(=O)[C@H](CC(C)C)NC(=O)[C@H](Cc2c[nH]c3ccccc23)NC(=O)[C@H](CC(=O)O)NC(=O)CNC(=O)[C@H](CCC(=O)O)NC1=O)C(C)C [3BP-2949] (Ac-VYCEGDWLTWQC-X16; linker 3-12 via mXylylene; N-terminus and C-terminus assumed)	–	–	–	82	–	–	95	–
CC(C)C[C@@H]1NC(=O)[C@H](Cc2c[nH]c3ccccc23)NC(=O)[C@H](CSCc2ccccc2)NC(=O)[C@H]2CCCN2C(=O)[C@H](CCC(=O)O)NC(=O)[C@@H](NC(=O)[C@H](Cc2ccc(O)cc2)NC(=O)[C@@H](NC(=O)CN2CCC(NC(=O)CN3CCN(CC(=O)O)CCN(CC(=O)O)CCN(CC(=O)O)CC3)CC2)C(C)C)CSCc2cccc(c2)CSC[C@@H](C(N)=O)NC(=O)[C@H](CO)NC(=O)[C@H](Cc2c[nH]c3ccccc23)NC(=O)[C@H]([C@@H](C)O)NC1=O [3BP-4128] ({DOTA}-[X2]VYCE[dP]C(Bn)WLTWSC-NH2; linker 4-13 via mXylylene)	–	A (t1/2>15.0 minutes)	< 10	–	87	–	–	< 10
CC(C)C[C@@H]1NC(=O)[C@H](Cc2c[nH]c3ccccc23)NC(=O)[C@H](CC(=O)O)NC(=O)[C@H]2CCCN2C(=O)[C@H](CCO)NC(=O)[C@@H](NC(=O)[C@H](Cc2ccc(O)cc2)NC(=O)[C@@H](NC(=O)CN2CCC(NC(=O)CN3CCN(CC(=O)O)CCN(CC(=O)O)CCN(CC(=O)O)CC3)CC2)C(C)C)CSCc2cccc(c2)CSC[C@@H](C(N)=O)NC(=O)[C@H](CO)NC(=O)[C@H](Cc2c[nH]c3ccccc23)NC(=O)[C@H]([C@@H](C)O)NC1=O [3BP-4101] ({DOTA}-[X2]VYC[hSer][dP]DWLTWSC-NH2; linker 4-13 via mXylylene)	–	B (t1/2 between 5.1 and 15.0 minutes)	< 10	–	93	–	–	< 10
CC(C)C[C@@H]1NC(=O)[C@H](Cc2c[nH]c3ccccc23)NC(=O)[C@H](CC(=O)O)NC(=O)[C@H]2CCCN2C(=O)[C@H](CCC(=O)O)NC(=O)[C@@H](NC(=O)[C@H](Cc2ccc(O)cc2)NC(=O)CN2CCN(CC(=O)O)CCN(CC(=O)O)CCN(CC(=O)O)CC2)CSCc2cccc(c2)CSC[C@@H](C(N)=O)NC(=O)[C@H](CO)NC(=O)[C@H](Cc2c[nH]c3ccccc23)NC(=O)[C@H]([C@@H](C)O)NC1=O [3BP-3859] ({DOTA}-YCE[dP]DWLTWSC-NH2; linker 2-11 via mXylylene)	< 10	B (t1/2 between 5.1 and 15.0 minutes)	–	–	>95	–	–	–
CC(C)C[C@@H]1NC(=O)[C@H](Cc2c[nH]c3ccccc23)NC(=O)[C@H](CC(=O)O)NC(=O)[C@H]2CCCN2C(=O)[C@H](CCC(=O)O)NC(=O)[C@@H](NC(=O)[C@H](CCC(=O)NC[C@H](O)[C@@H](O)[C@H](O)[C@H](O)CO)NC(=O)[C@@H](NC(=O)CN2CCC(NC(=O)CN3CCN(CC(=O)O)CCN(CC(=O)O)CCN(CC(=O)O)CC3)CC2)C(C)C)CSCc2cccc(c2)CSC[C@@H](C(N)=O)NC(=O)[C@H](CO)NC(=O)[C@H](Cc2c[nH]c3ccccc23)NC(=O)[C@H]([C@@H](C)O)NC1=O [3BP-4112] ({DOTA}-[X2]VE(NH(1-deoxy-D-glucityl))CE[dP]DWLTWSC-NH2; linker 4-13 via mXylylene)	–	B (t1/2 between 5.1 and 15.0 minutes)	< 10	–	>95	–	–	< 10
CCCC[C@H](NC(=O)CCC(=O)NCCCOCCOCCOCCCNC(=O)CN1CCN(CC(=O)O)CCN(CC(=O)O)CCN(CC(=O)O)CC1)C(=O)N[C@@H](Cc1ccc(O)cc1)C(=O)N[C@H]1CSCc2cccc(c2)CSC[C@@H](C(N)=O)NC(=O)[C@H](CO)NC(=O)[C@H](Cc2c[nH]c3ccccc23)NC(=O)[C@H]([C@@H](C)O)NC(=O)[C@H](CC(C)C)NC(=O)[C@H](Cc2c[nH]c3ccccc23)NC(=O)[C@H](CC(=O)O)NC(=O)[C@H]2CCCN2C(=O)[C@H](CCC(=O)O)NC1=O [3BP-3870] ({X3-Suc}-[Nle]YCE[dP]DWLTWSC-NH2; linker 3-12 via mXylylene)	< 10	B (t1/2 between 5.1 and 15.0 minutes)	< 10	–	92	–	–	–
CC(C)C[C@@H]1NC(=O)[C@H](Cc2ccc(Cl)c(Cl)c2)NC(=O)[C@H](CC(=O)O)NC(=O)[C@H]2CCCN2C(=O)[C@H](CCC(=O)O)NC(=O)[C@@H](NC(=O)[C@H](Cc2ccc(O)cc2)NC(=O)[C@@H](NC(=O)CN2CCC(NC(=O)CN3CCN(CC(=O)O)CCN(CC(=O)O)CCN(CC(=O)O)CC3)CC2)C(C)C)CSCc2cccc(c2)CSC[C@@H](C(N)=O)NC(=O)[C@H](CO)NC(=O)[C@H](Cc2c[nH]c3ccccc23)NC(=O)[C@H]([C@@H](C)O)NC1=O [3BP-4133] ({DOTA}-[X2]VYCE[dP]D[Phe(3,4-Cl2)]LTWSC-NH2; linker 4-13 via mXylylene)	–	B (t1/2 between 5.1 and 15.0 minutes)	< 10	–	>95	–	–	< 10
CC(C)C[C@@H]1NC(=O)[C@H](Cc2c[nH]c3ccccc23)NC(=O)[C@H](CC(=O)O)NC(=O)[C@H]2CCCN2C(=O)[C@H](CCC(=O)O)NC(=O)[C@@H]2CSCc3cccc(c3)CSC[C@@H](C(N)=O)NC(=O)[C@H](CNC(=O)C[C@H](NC(=O)[C@H](CO)NC(=O)CN3CCN(CC(=O)O)CCN(CC(=O)O)CCN(CC(=O)O)CC3)C(=O)N2)NC(=O)[C@H](Cc2c[nH]c3ccccc23)NC(=O)[C@H]([C@@H](C)O)NC1=O [3BP-4257] ({DOTA}-SDCE[dP]DWLTW[Dap]C-NH2; lactam 2-11; linker 3-12 via mXylylene)	–	C (t1/2 between 2.1 and 5.0 minutes)	< 10	–	94	–	–	< 10
